Laboratory results: article PMC5589637, “New perspectives of cobalt tris(bipyridine) system: anti-cancer effect and its collateral sensitivity towards multidrug-resistant (MDR) cancers” (Oncotarget, 2017)

Experiments:
[1] = test system: normal human LO2 hepatocytes; experiment: MTT cytotoxicity assay, LO2; type: cell-based; details: 72 h
Description: (§1) All tested compounds were dissolved in DMSO at a final concentration of 50 mmol/L and stored at −20°C before use. Cytotoxicity was assessed by using the 3-(4,5-dimethylthiazol-2-yl)-2, 5-diphenyltetrazolium bromide (MTT) (5.0 mg/ml) assay as previously described. Briefly, 4×10^3 cells per well were seeded in 96-well plates before drug treatments. After overnight culture, the cells were then exposed to different concentrations of selected compounds ([…]) for 72 hours. Cells without drug treatment were used as control. Subsequently, MTT (10 μL) solution was added to each well and incubated at 37°C for 4 hours followed by the addition of 100 μL solubilization buffer (10%SDS in 0.01 mol/L HCl) and overnight incubation. A570 nm was then determined in each well on the next day. The percentage of cell viability was calculated using the following formula: Cell viability (%) = Atreated/Acontrol × 100. Data were obtained from three independent experiments.

[2] = test system: A549 taxol-resistant cancer cells; experiment: MTT cytotoxicity, taxol-resistant A549; type: cell-based
Source text: (§2) All cells were obtained from the American Type Culture Collection (Rockville, MD, USA) unless otherwise specified. Immortalized wild-type and Atg7-deficient mouse embryonic fibroblasts (MEFs) were kindly provided by Professor Masaaki Komatsu (Juntendo University, School of Medicine, Japan). Taxol-resistant types of MCF-7, HCT-8, A549 cancers cells and cisplatin-resistant SGC7901 cancer cells were purchased from KeyGEN BioTECH, China. Cisplatin-sensitive or –resistant A2780, OV2008 and C13 cancer cells were kindly provided by Prof. Benjamin Tsang (Department of Obstetrics and Gynecology and Department of Cellular and Molecular Medicine, University of Ottawa, Canada). HCT116 p53^+/+ and p53^−/− isogenic human colon cancer cells were kindly provided by Professor Bert Vogelstein (Ludwig Center at Johns Hopkins, Howard Hughes Medical Institute, USA). All media were supplemented with 10% fetal bovine serum and antibiotics penicillin (50 U/ml) and streptomycin (50 μg/ml; Invitrogen, Paisley, Scotland, UK). All cell cultures were incubated at 37°C in a 5% humidified CO2 incubator.
as §1

[3] = test system: HeLa cancer cells; experiment: Western blot of S phase cell cycle markers; type: cell-based; details: 24 h, 10 and 15 μM
Description: Western blot analysis was carried out following standard methods. Cells were lysed with RIPA lysis buffer with protease and phosphatase inhibitor cocktails. Protein concentrations were determined using the Bio-Rad protein assay (Bio-Rad Laboratories, Inc., Hercules, CA, USA). After electrophoresis, the proteins from SDS/PAGE were electro-transferred to a Hybond enhanced chemiluminescence nitrocellulose membrane (Amersham Biosciences, NJ, USA), which was then blocked with 5% dried milk for 1 hour. After washing, the blot was incubated with the indicated primary antibodies overnight at 4°C. Detection was performed using appropriated HRP-conjugated secondary antibodies for 1 hour at RT followed by chemiluminescence (Invitrogen).

[4] = test system: SGC-7901 cisplatin-sensitive cancer cells; experiment: MTT cytotoxicity, cisplatin-sensitive SGC-7901; type: cell-based; details: 72 h
Source text: as §2, §1

[5] = test system: SGC-7901 cisplatin-resistant cancer cells; experiment: MTT cytotoxicity, cisplatin-resistant SGC-7901; type: cell-based
Source text: as §2, §1

[6] = test system: HeLa cancer cells; experiment: Flow cytometry cell-cycle analysis; type: cell-based; details: 24 h, propidium iodide flow cytometry
Source text: Cobalt complex 2-treated cells were harvested and analysed by flow cytometry using propidium iodide staining (BD Biosciences, San Jose, CA, USA) according to the manufacturer instructions. Cell population in different phase of cell cycle were quantitatively counted by a flow cytometer (BD FACSAria III, San Jose, CA, USA).

[7] = test system: HCT-8 taxol-sensitive cancer cells; experiment: MTT cytotoxicity, taxol-sensitive HCT-8; type: cell-based; details: 72 h
Source text: as §2, §1

[8] = molecular target: P-gp (Homo sapiens, UniProt P08183); details: taxol-resistant MCF-7, HCT-8 and A549, 0.5-10 μM, 4 h, dose-dependent
Sequence of P-gp (P08183 whole entry): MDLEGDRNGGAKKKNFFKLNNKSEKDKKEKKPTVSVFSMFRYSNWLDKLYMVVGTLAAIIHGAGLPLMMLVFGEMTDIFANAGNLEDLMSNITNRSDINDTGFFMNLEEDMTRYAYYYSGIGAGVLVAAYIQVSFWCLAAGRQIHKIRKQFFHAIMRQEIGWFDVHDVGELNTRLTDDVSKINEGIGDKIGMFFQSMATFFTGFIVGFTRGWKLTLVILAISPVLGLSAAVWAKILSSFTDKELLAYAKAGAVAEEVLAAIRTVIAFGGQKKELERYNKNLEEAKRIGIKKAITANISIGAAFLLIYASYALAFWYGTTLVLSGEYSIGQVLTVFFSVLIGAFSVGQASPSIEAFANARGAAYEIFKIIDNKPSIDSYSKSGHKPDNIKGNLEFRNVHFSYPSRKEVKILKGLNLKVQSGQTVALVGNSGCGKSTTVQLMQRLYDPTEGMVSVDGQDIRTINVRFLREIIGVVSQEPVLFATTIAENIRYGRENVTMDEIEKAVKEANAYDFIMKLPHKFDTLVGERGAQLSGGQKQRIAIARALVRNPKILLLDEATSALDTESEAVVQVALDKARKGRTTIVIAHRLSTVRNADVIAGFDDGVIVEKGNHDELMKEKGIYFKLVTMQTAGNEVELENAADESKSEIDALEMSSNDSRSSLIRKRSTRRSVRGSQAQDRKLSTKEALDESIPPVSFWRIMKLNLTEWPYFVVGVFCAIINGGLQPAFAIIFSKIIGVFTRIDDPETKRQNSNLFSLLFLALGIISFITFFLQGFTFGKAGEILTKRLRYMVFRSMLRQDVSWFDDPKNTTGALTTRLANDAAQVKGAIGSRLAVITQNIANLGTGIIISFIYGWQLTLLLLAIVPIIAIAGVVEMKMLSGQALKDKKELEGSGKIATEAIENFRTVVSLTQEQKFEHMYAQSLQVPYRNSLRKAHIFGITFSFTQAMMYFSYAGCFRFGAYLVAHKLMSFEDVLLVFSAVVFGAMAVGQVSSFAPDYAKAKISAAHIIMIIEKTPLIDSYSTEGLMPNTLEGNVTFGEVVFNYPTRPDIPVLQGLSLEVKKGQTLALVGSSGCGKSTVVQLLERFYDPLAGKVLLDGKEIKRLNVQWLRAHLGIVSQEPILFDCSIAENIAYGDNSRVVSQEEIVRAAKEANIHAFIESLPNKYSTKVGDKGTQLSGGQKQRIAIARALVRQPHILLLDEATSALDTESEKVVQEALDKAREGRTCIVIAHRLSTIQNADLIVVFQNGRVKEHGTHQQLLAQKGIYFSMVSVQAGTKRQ
Description: Taxol-resistant cancer cells were seeded in 6 well plate with 2 × 10^5 cells each well and cultured for 24 h at 37°C in an atmosphere containing 5% CO2. […] Subsequently, 5 μg/mL of Rho123 was added to each well and the wells were incubated for another 1 h at 37°C. The accumulation of Rho123 was stopped by washing the cells five times with ice-cold PBS. The cells were then resuspended in 400 μL PBS for flow cytometry analysis. Intracellular fluorescence was measured using a flow cytometer at an excitation wavelength of 488 nm and emission wavelength of 525 nm. All data acquisition and analysis were performed with CellQuest (BD Biosciences, San Jose, CA, USA) with at least three independent experiments. Results were shown as the mean of fluorescence intensity.

[9] = test system: OV2008 (cisplatin-sensitive) cells; experiment: MTT cytotoxicity, OV2008 (cisplatin-sensitive); type: cell-based; details: 72 h, read-out: IC50 value, cisplatin-sensitive cancer, OV2008
Source text: as §2, §1

[10] = test system: A2780 cisplatin-sensitive cancer cells; experiment: MTT cytotoxicity, cisplatin-sensitive A2780; type: cell-based; details: 72 h
Source text: as §2, §1

[11] = test system: LLC-1 Lewis lung cancer xenograft; experiment: LLC-1 xenograft tumor model; type: in vivo; details: LLC-1 bearing C57BL/6 mice, 10 days
Description: The mice were maintained under specific pathogen-free condition in a 12-h light-dark cycle. 8-week-old C57BL/6 mice (female body weight: 22 ± 4 g and male body weight 25 ± 4g) were purchased from The Chinese University of Hong Kong. The animals were housed in a 12 hours light/dark cycles and temperature-controlled room and given ad libitum access to food and water. All of the experiments were carried out in accordance to the “Institutional Animal Care and User Committee guidelines” of the Macau University of Science and Technology. C57BL/6 were randomly grouped (10 mice per group) and intraperitoneal injected with 40 mg/kg or 80 mg/kg of cobalt complex 2 or 40 mg/kg or 80 mg/kg of water-soluble form of cobalt complex 2. Xenograft mouse model was constructed as previously described. LLC-1 Lewis lung cancer cells (1 × 10^6 cells) were subcutaneously injected in the right dorsal region of the mice. After tumors grew to about 100 mm^3, the mice were randomly divided into 3 groups: 1) the control group, 2) 40 or 80 mg/kg cobalt complex 2 group, and 3) 40 mg/kg cobalt complex 2W (water soluble form). […] The body weight of each mouse was recorded with the tumor volume determined by Vernier caliper using the formula of L × W^2 × 0.52, where Lis the longest diameter of tumor and W is the shortest diameter of tumor. […]

[12] = test system: Atg7^−/− deficient MEFs; experiment: MTT cytotoxicity, Atg7 deficient MEFs; type: cell-based, mouse; details: 72 h
Source text: as §2, with “All media were supplemented with 10% fetal bovine serum and antibiotics penicillin (50 U/ml) and streptomycin (50 μg/ml; Invitrogen, Paisley, Scotland, UK). All cell cultures were incubated at 37°C in a 5% humidified CO2 incubator.” left out
(§3) All tested compounds were dissolved in DMSO at a final concentration of 50 mmol/L and stored at −20°C before use. Cytotoxicity was assessed by using the 3-(4,5-dimethylthiazol-2-yl)-2, 5-diphenyltetrazolium bromide (MTT) (5.0 mg/ml) assay as previously described. […] A570 nm was then determined in each well on the next day. The percentage of cell viability was calculated using the following formula: Cell viability (%) = Atreated/Acontrol × 100. […]

[13] = test system: Atg7^+/+ wild-type MEFs; experiment: MTT cytotoxicity, Atg7 wild-type MEFs; type: cell-based, mouse; details: 72 h
Source text: as §2, with “All media were supplemented with 10% fetal bovine serum and antibiotics penicillin (50 U/ml) and streptomycin (50 μg/ml; Invitrogen, Paisley, Scotland, UK). All cell cultures were incubated at 37°C in a 5% humidified CO2 incubator.” left out
as §3

[14] = test system: A2780 cisplatin-resistant cancer cells; experiment: MTT cytotoxicity, cisplatin-resistant A2780; type: cell-based
Source text: as §2, §1

## Cc1ccnc(-c2cc(C)ccn2)c1.Cc1ccnc(-c2cc(C)ccn2)c1.Cc1ccnc(-c2cc(C)ccn2)c1.F[P-](F)(F)(F)(F)F.F[P-](F)(F)(F)(F)F.F[P-](F)(F)(F)(F)F.[Co+3] [complex 2, [Co^III(4,4’-Me2-bpy)3](PF6)3]
[1]
  IC50: 13.2 µM
[2]; A549 taxol-resistant, MTT, 72 h
  IC50: 2.85 µM
[2]; IC50 of taxol-resistant cells over IC50 of taxol-sensitive cells, A549
  Resistant Factor, A549: 0.25
[3]
  protein level of cyclin A and E2F: significant accumulation
  protein level of cyclin D and E, cdk4, and cdk2: decreased
[4]
  IC50: 11.1 µM
[5]; SGC-7901 cisplatin-resistant, MTT, 72 h
  IC50: 12.6 µM
[5]; cisplatin-resistant over cisplatin-sensitive IC50, SGC-7901
  Resistant Factor, SGC-7901: 1.14
[6]; high concentration
  effect on cell cycle progression, high concentration: arrest HeLa cancer cell in S-phase
[6]; low concentration
  effect on cell cycle progression, low concentration: negligible effect on cell cycle progression
[7]
  IC50: 3.39 µM
[8]
  effect on P-gp activity (Rho123 accumulation): induced inhibitory effects towards P-gp activity in all the treated cell lines
[9]
  IC50: 7.62 µM
[10]
  IC50: 12.3 µM
[11]; IP 40 mg/kg/day or 80 mg/kg/day, P < 0.05
  reduction in tumor volume: up to 50%
[11]; IP daily
  body weight: no significant reduction in body weight
[12]
  IC50: 14 µM
[13]
  IC50: 4.84 µM
[14]; A2780 cisplatin-resistant, MTT, 72 h
  IC50: 10.7 µM
[14]; cisplatin-resistant over cisplatin-sensitive IC50, A2780
  Resistant Factor, A2780: 0.87
